{"source": "patent US20240124538A1", "about": "“Modulation of Wnt5a to Treat Glaucoma” (The Regents of the University of California, priority 2017, published 2024)", "key": {"WNT-5A": {"tested_on": "WNT-5A", "conditions": "Shinonaga et al. 2009; cited from earlier work"}, "Wnt5a [1]": {"molecular_target": "T1, Wnt5a (Mus musculus, UniProt P22725)", "T1 construct": "from tissue; host or cells: eye of living mice (Schlemm's canal / anterior chamber)", "T1 sequence (P22725 62-380)": "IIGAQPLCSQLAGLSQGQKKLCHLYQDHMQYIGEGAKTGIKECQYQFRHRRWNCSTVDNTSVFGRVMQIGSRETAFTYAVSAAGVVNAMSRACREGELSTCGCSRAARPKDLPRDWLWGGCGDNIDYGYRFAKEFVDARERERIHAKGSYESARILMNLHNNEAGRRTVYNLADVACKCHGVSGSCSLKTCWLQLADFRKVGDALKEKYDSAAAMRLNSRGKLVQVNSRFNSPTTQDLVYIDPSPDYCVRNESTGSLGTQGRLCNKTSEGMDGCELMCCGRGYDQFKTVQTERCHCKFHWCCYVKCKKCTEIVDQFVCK", "experiment": "Mouse model of pathogenic IOP, inhibitor delivered by eye drops", "assay_type": "in vivo", "protocol": "In one protocol subconjuctival injection of siRNA is performed as described by Yuen et al. (2014, Invest Ophthalmol Vis Sci. 2014; 55:3320-3327). Mice are randomly selected to receive subconjunctival injection of 5 uL (0.2 1g/uL) siRNA or control twice a week for 2 weeks. In a second protocol intracameral injection of siRNA is performed as described by Tam et al. (2017, Scientific Reports 7, 40717). Mice are anaesthetized by intra-peritoneal injection, and pupils are dilated. A pulled blunt-ended micro-glass needle is first used to puncture the cornea to withdraw aqueous humour Immediately after puncture, a pulled blunt-ended micro-glass needle attached to a 10 μl syringe is inserted through the puncture, and 1.5 μl of PBS containing 1 μg siRNA is administered into the anterior chamber. Contralateral eyes receive an identical injection of 1.5 μl containing the same concentration of scrambled siRNA."}, "[2]": {"conditions": "Shinonaga et al. 2009; cited from earlier work"}, "Wnt5a [3]": {"molecular_target": "T2, Wnt5a (Oryctolagus cuniculus, UniProt Q27Q52)", "T2 construct": "New Zealand White rabbits receive a topical administration; from tissue; host or cells: eye of living New Zealand White rabbits", "T2 sequence (Q27Q52 62-380)": "T1 sequence (P22725 62-380)", "experiment": "Rabbit model of pathogenic IOP, inhibitor delivered by eye drops", "assay_type": "in vivo", "description": "To assess the effect of siRNA delivered by eye drops on IOP, we developed an additional protocol based on the methods of Martinez et al. (Mol Ther. 2014 January; 22(1):81-91), wherein New Zealand White rabbits receive a topical administration of either 20 nmol/day of siRNA or phosphate-buffered saline (PBS) over a period of 4 consecutive days."}}}
{"substance": "6,7-dihydro-10alpha-hydroxy radicicol", "values": [{"measurement": "WNT-5A expression inhibition", "setting": "WNT-5A", "value": "potent WNT-5A expression inhibitor"}, {"measurement": "therapy of pathogenic IOP", "setting": "Wnt5a [1]", "value": "effective therapies for pathogenic IOP"}, {"measurement": "toxicity", "setting": "[2]", "value": "relatively low toxicity"}, {"measurement": "therapy of pathogenic IOP", "setting": "Wnt5a [3]", "value": "effective therapies for pathogenic IOP"}]}
